Assay results published in ChEMBL document CHEMBL1143732, “3-Hydroxy-1,5-dihydro-pyrrol-2-one derivatives as advanced inhibitors of HIV integrase” (Bioorg Med Chem, 2007).

Legend:
[1] = Inhibition of HIV integrase by MWPA-Mg enzymatic assay; design: species or system Human immunodeficiency virus
[2] = system: Human immunodeficiency virus; experiment: Antiviral activity against HIV; assay type: functional, organism-based; settings: Human immunodeficiency virus 1
[3] = Inhibition of HIV integrase by MWPA-Mn enzymatic assay; design: species or system Human immunodeficiency virus

Row | SMILES | IC50 [1] [µM] | EC50 [2] [µM] | IC50 [3] [µM]
1 | COc1ccc(CN2CC(c3cc(OCc4ccc(F)cc4)ncn3)=C(O)C2=O)cc1 | 0.14 | 3.3 | –
2 | CCCN1CC(c2cc(OCc3ccc(F)cc3)ncn2)=C(O)C1=O | 0.27 | 9 | –
3 | O=C(/C(O)=C/c1cc(CCc2ccccc2)ncn1)N1CCOCC1 | 236 | > 59 | 262
4 | CN1CC(c2ccc(Oc3ccc(F)cc3)cn2)=C(O)C1=O | 0.08 | 1.9 | < 0.021
5 | CNC(=O)/C(O)=C/c1cc(CCc2ccccc2)ncn1 | 11 | 24 | 39
6 | CN1CC(c2cc(CCc3ccc(F)cc3)ncn2)=C(O)C1=O | 0.32 | 0.8 | 0.32
7 | COc1ccc(N2CC(C(=O)c3ccc(Cc4ccc(F)cc4)o3)=C(O)C2=O)cc1 | 0.17 | 13 | –
8 | O=C(C1=C(O)C(=O)N(C2CCCC2)C1)c1ccc(Cc2ccc(F)cc2)o1 | 0.13 | 1.5 | –
9 | CC(C)N1CC(c2cc(OCc3ccc(F)cc3)ncn2)=C(O)C1=O | 0.082 | 1.4 | –
10 | O=C(C1=C(O)C(=O)N(CCO)C1)c1ccc(Cc2ccc(F)cc2)o1 | 0.075 | 5.5 | –
11 | O=C(O)/C(O)=C/c1cc(OCc2ccc(F)cc2)ccn1 | 0.093 | 7.9 | 0.014
12 | NC(=O)/C(O)=C/c1cc(CCc2ccccc2)ncn1 | 6.7 | 49 | 71
13 | O=C1NCC(C(=O)c2ccc(Cc3ccc(F)cc3)o2)=C1O | 0.1 | 0.93 | –
14 | O=C(O)/C(O)=C/c1ccc(Cc2ccc(F)cc2)cn1 | 1.4 | 8.8 | 0.095
15 | O=C(C1=C(O)C(=O)N(CCN2CCOCC2)C1)c1ccc(Cc2ccc(F)cc2)o1 | 0.18 | 3.4 | –
16 | O=C(O)/C(O)=C/c1ccc(Oc2ccc(F)cc2)cn1 | 8.7 | > 73 | 0.11
17 | O=C(O)/C(O)=C/c1cc(CCc2ccc(F)cc2)ccn1 | 1.8 | 27 | 0.059
18 | O=C(O)/C(O)=C/c1cc(CCc2ccccc2)ncn1 | 9.6 | 34 | 0.037
19 | O=C(O)/C(O)=C/c1ccc(OCc2ccc(F)cc2)cn1 | 0.48 | 45.7 | 0.066
20 | O=C(C1=C(O)C(=O)N(Cc2ccccc2)C1)c1ccc(Cc2ccc(F)cc2)o1 | 0.18 | 7.4 | –

Stronger by EC50 [2], values ahead:

Row | IC50 [1] [µM] | EC50 [2] [µM] | IC50 [3] [µM] | SMILES
21 | 0.03 | 0.18 | < 0.021 | CN1CC(c2ccc(OCc3ccc(F)cc3)cn2)=C(O)C1=O
22 | 0.053 | 0.47 | – | COCCN1CC(c2cc(OCc3ccc(F)cc3)ncn2)=C(O)C1=O
23 | 0.079 | 0.55 | – | CC(C)N1CC(C(=O)c2ccc(Cc3ccc(F)cc3)o2)=C(O)C1=O
24 | 0.04 | 0.24 | – | O=C1NCC(c2cc(OCc3ccc(F)cc3)ncn2)=C1O
25 | 0.16 | 0.67 | – | COCCN1CC(C(=O)c2ccc(Cc3ccc(F)cc3)o2)=C(O)C1=O
26 | 0.037 | 0.17 | < 0.021 | CN1CC(c2ccc(Cc3ccc(F)cc3)cn2)=C(O)C1=O
27 | 0.063 | 0.32 | 0.3 | CN1CC(c2cc(OCc3ccc(F)cc3)ncn2)=C(O)C1=O
28 | 0.046 | 0.38 | – | O=C1C(O)=C(c2cc(OCc3ccc(F)cc3)ncn2)CN1CCO
29 | – | 0.2 | – | O=C(/C=C(\O)c1nc[nH]n1)c1ccc(Cc2ccc(F)cc2)o1 [S-1360]
30 | 0.082 | 0.63 | – | CN1CC(C(=O)c2ccc(Cc3ccc(F)cc3)o2)=C(O)C1=O
